Experimental data from article PMC9019904, “AD Informer Set: Chemical tools to facilitate Alzheimer's disease drug discovery” (Alzheimer's & Dementia : Translational Research & Clinical …, 2022).
In brackets after ≈: the same amount, converted by molar mass.

Key:
[1] = system: BV2 (mouse microglia) cell line; test: pHrodo-myelin phagocytosis/cell viability high content imaging assay: viability (cell count, nuclear area, nuclear intensity)
How it was run: (§1)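 Immortalized microglia are treated with compound (10 μM, single concentration) for 48 h, the final 20 h alongside pHrodo-myelin. Data are the mean of duplicates, reported as % of untreated control.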

[2] = system: HMC3 (human microglia) cell line; test: as above
How it was run: as §1

[3] = system: BV2 (mouse microglia) cell line; test: pHrodo-myelin phagocytosis/cell viability high content imaging assay: phagocytosis signal; assay type: cell-based
How it was run: (§2)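 Simultaneous phagocytosis/viability imaging at approximately 22 h after adding pHrodo-myelin. Rising intensity flagged early apoptosis and falling intensity later apoptosis.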

[4] = system: HMC3 (human microglia) cell line; test: as above; assay type: cell-based
How it was run: as §2

[5] = Kinetic solubility in aqueous buffer pH 7.4 by total chemiluminescent nitrogen determination (Analiza); settings: aqueous buffer, pH 7.4, aqueous buffer, kinetic from dmso stock
[6] = BV2, 10 μM, cell count <70% control
[7] = HMC3, 10 μM, cell count <70% control

Row | solubility kinetic [5] | SMILES | Mouse microglial cytotoxicity at 10 μM (<70% control) [1, 6] | Human microglial cytotoxicity at 10 μM (<70% control) [2, 7] | Inhibition of mouse microglial phagocytosis at 10 μM (<70% control) ([3]; BV2, 10 μM) | Inhibition of human microglial phagocytosis at 10 μM (<70% control) ([4]; HMC3, 10 μM) | Mouse microglial cytotoxicity at 10 μM (<70% control) ([1]; 10 μM, BV2) | Human microglial cytotoxicity at 10 μM (<70% control) ([2]; 10 μM, HMC3) | Inhibition of mouse microglial phagocytosis at 10 μM (<70% control) ([3]; 10 μM, BV2) | Inhibition of human microglial phagocytosis at 10 μM (<70% control) ([4]; 10 μM, HMC3) | Mouse microglial cytotoxicity at 10 μM (<70% control) ([1]; BV2, 10 μM) | Human microglial cytotoxicity at 10 μM (<70% control) ([2]; HMC3, 10 μM)
1 | 3.9 µM (≈ 1.8 µg/mL) | Fc1ccc(C(CCCNCC2CCc3[nH]c4ccc(F)cc4c3C2)c2ccc(F)cc2)cc1 (stereo not shown) [MSC1094308] | Y (The compound was found to be cytotoxic (cell count threshold: <70% control) when murine immortalized microglial cells were dosed at 10 μM (Y: yes)) | Y (The compound was found to be cytotoxic (cell count threshold: <70% control) when human immortalized microglial cells were dosed at 10 μM (Y: yes)) | Y (The compound was found to inhibit phagocytosis (response threshold: <70% control) when murine immortalized microglial cells were dosed at 10 μM (Y: yes)) | Y (The compound was found to inhibit phagocytosis (response threshold: <70% control) when human immortalized microglial cells were dosed at 10 μM (Y: yes)) | – | – | – | – | – | –
2 | < 0.4 µM | COc1cccc2c(NCc3ccccc3)nc(-n3c(N)nc4ccccc43)nc12 [ML 240] | Y (The compound was found to be cytotoxic (cell count threshold: <70% control) when murine immortalized microglial cells were dosed at 10 μM (Y: yes)) | Y (The compound was found to be cytotoxic (cell count threshold: <70% control) when human immortalized microglial cells were dosed at 10 μM (Y: yes)) | Y (The compound was found to inhibit phagocytosis (response threshold: <70% control) when murine immortalized microglial cells were dosed at 10 μM (Y: yes)) | Y (The compound was found to inhibit phagocytosis (response threshold: <70% control) when human immortalized microglial cells were dosed at 10 μM (Y: yes)) | – | – | – | – | – | –
3 | 11 µM (≈ 5.35 µg/mL) | C=CC(=O)Nc1cc2c(Nc3ccc(F)c(Cl)c3)ncnc2cc1OCCCN1CCOCC1 [Canertinib] | – | – | Y (The compound was found to inhibit phagocytosis (response threshold: <70% control) when murine immortalized microglial cells were dosed at 10 μM (Y: yes)) | Y (The compound was found to inhibit phagocytosis (response threshold: <70% control) when human immortalized microglial cells were dosed at 10 μM (Y: yes)) | – | – | – | – | Y (The compound was found to be cytotoxic (cell count threshold: <70% control) when murine immortalized microglial cells were dosed at 10 μM (Y: yes)) | Y (The compound was found to be cytotoxic (cell count threshold: <70% control) when human immortalized microglial cells were dosed at 10 μM (Y: yes))
4 | 159 µM (≈ 75.6 µg/mL) | CC(=O)NCC(=O)N1[C@@H]2CC[C@H]1c1ccc(Nc3ncc(C(F)(F)F)c(NC4CCC4)n3)cc12 [PF-03814735 (MolPort-023-219-160)] | – | – | – | – | Y (The compound was found to be cytotoxic (cell count threshold: <70% control) when murine immortalized microglial cells were dosed at 10 μM (Y: yes)) | Y (The compound was found to be cytotoxic (cell count threshold: <70% control) when human immortalized microglial cells were dosed at 10 μM (Y: yes)) | Y (The compound was found to inhibit phagocytosis (response threshold: <70% control) when murine immortalized microglial cells were dosed at 10 μM (Y: yes)) | Y (The compound was found to inhibit phagocytosis (response threshold: <70% control) when human immortalized microglial cells were dosed at 10 μM (Y: yes)) | – | –
5 | 3.8 µM (≈ 1.68 µg/mL) | Cn1nccc1Nc1nccc(-c2ccn([C@H](CO)c3ccc(Cl)c(F)c3)c(=O)c2)n1 [Ravoxertinib (GDC0994)] | – | – | – | – | Y (The compound was found to be cytotoxic (cell count threshold: <70% control) when murine immortalized microglial cells were dosed at 10 μM (Y: yes)) | Y (The compound was found to be cytotoxic (cell count threshold: <70% control) when human immortalized microglial cells were dosed at 10 μM (Y: yes)) | Y (The compound was found to inhibit phagocytosis (response threshold: <70% control) when murine immortalized microglial cells were dosed at 10 μM (Y: yes)) | Y (The compound was found to inhibit phagocytosis (response threshold: <70% control) when human immortalized microglial cells were dosed at 10 μM (Y: yes)) | – | –
6 | 5.7 µM | CSc1ccc2c(c1)c(CCN)c(C)n2Cc1ccc(Cl)cc1Cl.Cl [K149] | – | – | – | – | Y (The compound was found to be cytotoxic (cell count threshold: <70% control) when murine immortalized microglial cells were dosed at 10 μM (Y: yes)) | Y (The compound was found to be cytotoxic (cell count threshold: <70% control) when human immortalized microglial cells were dosed at 10 μM (Y: yes)) | Y (The compound was found to inhibit phagocytosis (response threshold: <70% control) when murine immortalized microglial cells were dosed at 10 μM (Y: yes)) | Y (The compound was found to inhibit phagocytosis (response threshold: <70% control) when human immortalized microglial cells were dosed at 10 μM (Y: yes)) | – | –
7 | 3.7 µM (≈ 2.25 µg/mL) | CCN1CCN(Cc2ccc(NC(=O)c3ccc(C)c(NC(=O)c4cncc(-c5cccs5)c4)c3)cc2C(F)(F)F)CC1 [ALW-II-41-27] | – | – | Y (The compound was found to inhibit phagocytosis (response threshold: <70% control) when murine immortalized microglial cells were dosed at 10 μM (Y: yes)) | Y (The compound was found to inhibit phagocytosis (response threshold: <70% control) when human immortalized microglial cells were dosed at 10 μM (Y: yes)) | – | – | – | – | Y (The compound was found to be cytotoxic (cell count threshold: <70% control) when murine immortalized microglial cells were dosed at 10 μM (Y: yes)) | Y (The compound was found to be cytotoxic (cell count threshold: <70% control) when human immortalized microglial cells were dosed at 10 μM (Y: yes))
8 | 3.8 µM (≈ 1.98 µg/mL) | Cc1cc(OCc2nnc(SC3CCCC3)n2-c2cccnc2)ccc1-c1ccc(S(C)(=O)=O)cc1 [NMS-873] | Y (The compound was found to be cytotoxic (cell count threshold: <70% control) when murine immortalized microglial cells were dosed at 10 μM (Y: yes)) | Y (The compound was found to be cytotoxic (cell count threshold: <70% control) when human immortalized microglial cells were dosed at 10 μM (Y: yes)) | Y (The compound was found to inhibit phagocytosis (response threshold: <70% control) when murine immortalized microglial cells were dosed at 10 μM (Y: yes)) | Y (The compound was found to inhibit phagocytosis (response threshold: <70% control) when human immortalized microglial cells were dosed at 10 μM (Y: yes)) | – | – | – | – | – | –
9 | 1.9 µM (≈ 0.647 µg/mL) | c1ccc(CNc2nc(NCc3ccccc3)c3ccccc3n2)cc1 [DBeQ] | Y (The compound was found to be cytotoxic (cell count threshold: <70% control) when murine immortalized microglial cells were dosed at 10 μM (Y: yes)) | Y (The compound was found to be cytotoxic (cell count threshold: <70% control) when human immortalized microglial cells were dosed at 10 μM (Y: yes)) | Y (The compound was found to inhibit phagocytosis (response threshold: <70% control) when murine immortalized microglial cells were dosed at 10 μM (Y: yes)) | Y (The compound was found to inhibit phagocytosis (response threshold: <70% control) when human immortalized microglial cells were dosed at 10 μM (Y: yes)) | – | – | – | – | – | –

Row | SMILES | solubility kinetic [5] | Mouse microglial cytotoxicity at 10 μM (<70% control) [1, 6] | Human microglial cytotoxicity at 10 μM (<70% control) [2, 7] | Inhibition of mouse microglial phagocytosis at 10 μM (<70% control) ([3]; BV2, 10 μM) | Inhibition of human microglial phagocytosis at 10 μM (<70% control) ([4]; HMC3, 10 μM) | Mouse microglial cytotoxicity at 10 μM (<70% control) ([1]; 10 μM, BV2) | Human microglial cytotoxicity at 10 μM (<70% control) ([2]; 10 μM, HMC3) | Inhibition of mouse microglial phagocytosis at 10 μM (<70% control) ([3]; 10 μM, BV2) | Inhibition of human microglial phagocytosis at 10 μM (<70% control) ([4]; 10 μM, HMC3) | Mouse microglial cytotoxicity at 10 μM (<70% control) ([1]; BV2, 10 μM) | Human microglial cytotoxicity at 10 μM (<70% control) ([2]; HMC3, 10 μM)
10 | CC1(COc2ccc3c(c2)ncn3-c2ccc3cccc(N4CCC(N)CC4)c3n2)COC1 [Crenolanib] | 115 µM (≈ 51.1 µg/mL) | – | – | – | – | Y (The compound was found to be cytotoxic (cell count threshold: <70% control) when murine immortalized microglial cells were dosed at 10 μM (Y: yes)) | Y (The compound was found to be cytotoxic (cell count threshold: <70% control) when human immortalized microglial cells were dosed at 10 μM (Y: yes)) | Y (The compound was found to inhibit phagocytosis (response threshold: <70% control) when murine immortalized microglial cells were dosed at 10 μM (Y: yes)) | Y (The compound was found to inhibit phagocytosis (response threshold: <70% control) when human immortalized microglial cells were dosed at 10 μM (Y: yes)) | – | –
11 | Cc1cc(Nc2ncc(Cl)c(Nc3ccccc3S(=O)(=O)C(C)C)n2)c(OC(C)C)cc1C1CCNCC1 [Ceritinib] | 25.1 µM (≈ 14 µg/mL) | – | – | Y (The compound was found to inhibit phagocytosis (response threshold: <70% control) when murine immortalized microglial cells were dosed at 10 μM (Y: yes)) | Y (The compound was found to inhibit phagocytosis (response threshold: <70% control) when human immortalized microglial cells were dosed at 10 μM (Y: yes)) | – | – | – | – | Y (The compound was found to be cytotoxic (cell count threshold: <70% control) when murine immortalized microglial cells were dosed at 10 μM (Y: yes)) | Y (The compound was found to be cytotoxic (cell count threshold: <70% control) when human immortalized microglial cells were dosed at 10 μM (Y: yes))
